The source made the active and inactive calls. The calls are words filed in the database; no cut-off is given here.
Experiments:
BaF3 [1] = assay: Antiproliferative activity against mouse Ba/F3 cells harbouring FLT3 ITD D835Y mutant assessed as growth inhibition measured after 72 hrs by CellTiter-Glo assay; type: functional
MV4-11 = assay: In vivo antitumor activity against human MV4-11 cells xenografted in mouse assessed as tumor weight at 20 mg/kg, po relative to control; type: functional, organism-based
BaF3 [2] = assay: Antiproliferative activity against mouse Ba/F3 cells harbouring FLT3 ITD F691I mutant assessed as growth inhibition measured after 72 hrs by CellTiter-Glo assay; type: functional
BaF3 [3] = assay: Antiproliferative activity against mouse Ba/F3 cells harbouring FLT3 D835Y mutant assessed as growth inhibition measured after 72 hrs by CellTiter-Glo assay; type: functional
BaF3 [4] = assay: Antiproliferative activity against mouse Ba/F3 cells assessed as growth inhibition measured after 72 hrs by CellTiter-Glo assay; type: functional
BaF3 [5] = assay: Antiproliferative activity against mouse Ba/F3 cells harbouring FLT3 ITD mutant assessed as growth inhibition measured after 72 hrs by CellTiter-Glo assay; type: functional
BaF3 [6] = assay: Antiproliferative activity against mouse Ba/F3 cells harbouring FLT3 ITD F691L mutant assessed as growth inhibition measured after 72 hrs by CellTiter-Glo assay; type: functional
[7] = Inhibition of FYK Y379 mutant phosphorylation in human MDA-MB-231 cells by in-cell western blot assay; type: cell-based
Focal adhesion kinase 1 = Focal adhesion kinase 1 (Homo sapiens, UniProt Q05397); assay: Inhibition of recombinant FAK (unknown origin) by radiometric kinase assay
Focal adhesion kinase 1, sequence (Q05397 whole entry): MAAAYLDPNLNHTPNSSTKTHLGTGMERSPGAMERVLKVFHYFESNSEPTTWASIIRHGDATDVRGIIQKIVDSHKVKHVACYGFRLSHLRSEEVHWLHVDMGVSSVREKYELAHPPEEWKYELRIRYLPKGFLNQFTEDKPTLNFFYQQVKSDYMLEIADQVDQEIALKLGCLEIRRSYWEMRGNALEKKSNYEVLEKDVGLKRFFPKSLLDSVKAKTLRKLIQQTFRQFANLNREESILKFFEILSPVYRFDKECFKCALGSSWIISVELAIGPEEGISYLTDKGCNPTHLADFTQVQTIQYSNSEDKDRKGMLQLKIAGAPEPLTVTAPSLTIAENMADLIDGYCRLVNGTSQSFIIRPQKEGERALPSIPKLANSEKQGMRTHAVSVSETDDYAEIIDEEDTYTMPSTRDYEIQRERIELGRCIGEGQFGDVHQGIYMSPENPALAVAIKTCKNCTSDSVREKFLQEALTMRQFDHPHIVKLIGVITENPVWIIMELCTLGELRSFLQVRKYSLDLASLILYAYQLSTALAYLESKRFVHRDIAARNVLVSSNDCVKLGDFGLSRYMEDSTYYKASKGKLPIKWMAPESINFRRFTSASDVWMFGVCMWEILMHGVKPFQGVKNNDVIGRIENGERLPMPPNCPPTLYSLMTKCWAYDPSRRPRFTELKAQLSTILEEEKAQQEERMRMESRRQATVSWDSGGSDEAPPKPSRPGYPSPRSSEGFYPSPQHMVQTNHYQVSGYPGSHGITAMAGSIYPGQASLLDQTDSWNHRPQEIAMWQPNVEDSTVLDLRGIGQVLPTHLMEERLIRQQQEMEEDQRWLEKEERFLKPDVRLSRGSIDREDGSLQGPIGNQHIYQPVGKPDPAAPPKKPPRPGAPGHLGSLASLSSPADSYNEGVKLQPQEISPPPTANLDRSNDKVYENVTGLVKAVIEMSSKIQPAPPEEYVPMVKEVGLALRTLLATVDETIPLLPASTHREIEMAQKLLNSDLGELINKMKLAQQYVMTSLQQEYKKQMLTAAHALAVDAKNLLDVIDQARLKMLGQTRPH

[8] = Inhibition of FLT3 D835Y (unknown origin); set-up: species or system Homo sapiens
[9] = (§1) Antiproliferative activity against human A375P cells assessed as growth inhibition measured after 72 hrs by CellTiter-Glo assay; type: functional
[10] = Metabolic stability in human liver microsomes assessed as compound remaining at 1 uM measured after 1 hr; type: ADME, Microsome; details: read-out: Stabilty
MDA-MB-231 [11] = assay: Antiproliferative activity against human MDA-MB-231 cells assessed as growth inhibition measured after 72 hrs by CellTiter-Glo assay; type: functional
HCT-116 [12] = assay: Antiproliferative activity against human HCT-116 cells assessed as growth inhibition measured after 72 hrs by CellTiter-Glo assay; type: functional
CYP3A4 = CYP3A4 (Homo sapiens, UniProt P08684); assay: Inhibition of CYP3A4 (unknown origin) at 10 uM relative to control; type: ADME
CYP3A4, sequence (P08684 whole entry): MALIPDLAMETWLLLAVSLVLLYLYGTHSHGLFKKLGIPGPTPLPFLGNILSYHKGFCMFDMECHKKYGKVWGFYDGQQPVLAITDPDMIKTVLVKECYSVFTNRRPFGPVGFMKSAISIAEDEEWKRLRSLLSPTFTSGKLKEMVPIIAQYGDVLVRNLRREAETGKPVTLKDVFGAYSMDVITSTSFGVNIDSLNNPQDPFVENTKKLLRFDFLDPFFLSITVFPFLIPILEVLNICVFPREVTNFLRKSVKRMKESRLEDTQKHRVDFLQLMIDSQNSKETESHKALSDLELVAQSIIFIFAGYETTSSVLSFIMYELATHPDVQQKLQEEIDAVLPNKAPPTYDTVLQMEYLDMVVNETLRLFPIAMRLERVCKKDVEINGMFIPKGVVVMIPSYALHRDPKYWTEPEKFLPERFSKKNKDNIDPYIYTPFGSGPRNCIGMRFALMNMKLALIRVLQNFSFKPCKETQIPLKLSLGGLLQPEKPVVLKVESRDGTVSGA

CYP2C19 = CYP2C19 (Homo sapiens, UniProt P33261); assay: Inhibition of CYP2C19 (unknown origin) at 10 uM relative to control; type: ADME
CYP2C19, sequence (P33261 whole entry): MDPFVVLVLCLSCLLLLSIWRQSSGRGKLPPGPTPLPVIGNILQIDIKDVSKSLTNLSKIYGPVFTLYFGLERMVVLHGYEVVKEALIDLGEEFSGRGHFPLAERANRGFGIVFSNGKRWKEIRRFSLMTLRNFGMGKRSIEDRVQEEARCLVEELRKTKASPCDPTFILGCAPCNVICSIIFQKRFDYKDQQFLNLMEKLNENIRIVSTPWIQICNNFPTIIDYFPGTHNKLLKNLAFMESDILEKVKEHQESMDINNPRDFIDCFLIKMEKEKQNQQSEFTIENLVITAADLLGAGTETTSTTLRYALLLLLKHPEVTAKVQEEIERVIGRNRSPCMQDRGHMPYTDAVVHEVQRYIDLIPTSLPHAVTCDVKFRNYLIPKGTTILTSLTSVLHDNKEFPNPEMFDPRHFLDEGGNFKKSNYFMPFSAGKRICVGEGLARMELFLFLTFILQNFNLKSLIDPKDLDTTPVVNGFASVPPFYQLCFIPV

CYP2C9 = CYP2C9 (Homo sapiens, UniProt P11712); assay: Inhibition of CYP2C9 (unknown origin) at 10 uM relative to control; type: ADME
CYP2C9, sequence (P11712 whole entry): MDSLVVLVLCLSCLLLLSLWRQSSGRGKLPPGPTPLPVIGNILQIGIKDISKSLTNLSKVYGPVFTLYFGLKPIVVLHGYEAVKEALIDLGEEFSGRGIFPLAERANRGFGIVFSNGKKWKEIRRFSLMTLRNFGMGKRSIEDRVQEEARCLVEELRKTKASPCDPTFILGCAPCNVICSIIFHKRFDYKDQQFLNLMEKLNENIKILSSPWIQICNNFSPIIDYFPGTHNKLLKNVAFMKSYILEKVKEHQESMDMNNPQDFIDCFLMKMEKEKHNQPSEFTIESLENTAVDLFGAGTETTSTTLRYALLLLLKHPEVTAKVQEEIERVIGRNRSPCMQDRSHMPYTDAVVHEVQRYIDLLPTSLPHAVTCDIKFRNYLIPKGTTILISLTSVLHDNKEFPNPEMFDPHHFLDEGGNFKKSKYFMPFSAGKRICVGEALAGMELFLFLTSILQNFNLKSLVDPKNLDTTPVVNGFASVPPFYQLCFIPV

CYP1A2 = biological target: T1, CYP1A2 (Homo sapiens, UniProt P05177); assay: Inhibition of CYP1A2 (unknown origin) at 10 uM relative to control; type: ADME
T1 sequence (P05177 whole entry): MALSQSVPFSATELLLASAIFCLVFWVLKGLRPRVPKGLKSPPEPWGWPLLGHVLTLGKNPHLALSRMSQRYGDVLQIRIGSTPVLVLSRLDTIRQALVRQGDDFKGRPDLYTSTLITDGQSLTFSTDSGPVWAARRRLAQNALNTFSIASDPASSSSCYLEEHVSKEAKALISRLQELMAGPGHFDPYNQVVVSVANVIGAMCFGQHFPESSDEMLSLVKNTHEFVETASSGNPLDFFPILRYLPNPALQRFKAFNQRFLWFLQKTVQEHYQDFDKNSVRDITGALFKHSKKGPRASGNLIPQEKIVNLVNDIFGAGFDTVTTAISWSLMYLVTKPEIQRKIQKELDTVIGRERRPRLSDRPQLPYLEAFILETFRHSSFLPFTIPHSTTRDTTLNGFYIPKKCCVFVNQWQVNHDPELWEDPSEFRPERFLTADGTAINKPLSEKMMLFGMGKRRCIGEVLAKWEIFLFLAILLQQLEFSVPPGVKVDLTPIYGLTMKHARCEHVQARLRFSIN

CYP2D6 = CYP2D6 (Homo sapiens, UniProt P10635); assay: Inhibition of CYP2D6 (unknown origin) at 10 uM relative to control; type: ADME
CYP2D6, sequence (P10635 whole entry): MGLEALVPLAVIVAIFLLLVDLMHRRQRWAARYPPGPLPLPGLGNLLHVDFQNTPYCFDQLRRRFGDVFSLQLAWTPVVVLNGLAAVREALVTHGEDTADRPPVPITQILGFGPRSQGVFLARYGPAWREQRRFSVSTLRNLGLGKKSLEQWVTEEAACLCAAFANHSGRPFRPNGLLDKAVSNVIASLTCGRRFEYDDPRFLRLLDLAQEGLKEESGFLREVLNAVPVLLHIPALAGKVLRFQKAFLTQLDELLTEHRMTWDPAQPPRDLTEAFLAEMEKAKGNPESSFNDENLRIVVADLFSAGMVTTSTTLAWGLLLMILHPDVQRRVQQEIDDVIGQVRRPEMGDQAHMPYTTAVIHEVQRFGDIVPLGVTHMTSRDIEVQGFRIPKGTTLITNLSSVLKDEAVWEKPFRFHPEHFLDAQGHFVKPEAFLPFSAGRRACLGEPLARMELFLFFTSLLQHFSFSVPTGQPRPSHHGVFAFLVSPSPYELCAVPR

A375P = assay: as §1; type: functional
MDA-MB-231 [13] = assay: Growth inhibition of anchorage-Independent human MDA-MB-231 cells assessed as decrease in number of colonies incubated for 72 hrs by MTT assay; type: functional, cell-based; details: dose 1-10 µM
MDA-MB-231 [14] = assay: In vivo antitumor activity against human MDA-MB-231 cells xenografted in Balb/c mouse assessed as reduction in tumor mass at 40 to 70 mg/kg, po once daily measured for 16 days; type: functional, organism-based; details: dose 40-70 mg/kg, time 16.0 day
[15] = biological target: T2, Mitogen-activated protein kinase; ERK1/ERK2 (Homo sapiens) (UniProt P27361+P28482); assay: Inhibition of ERK1/2 autophosphorylation in human MDA-MB-231 cells at 0.5 to 5 uM incubated for 24 hrs by Western blot analysis; type: cell-based; details: dose 0.5-5 µM
T2 sequence (P27361 whole entry, looked up): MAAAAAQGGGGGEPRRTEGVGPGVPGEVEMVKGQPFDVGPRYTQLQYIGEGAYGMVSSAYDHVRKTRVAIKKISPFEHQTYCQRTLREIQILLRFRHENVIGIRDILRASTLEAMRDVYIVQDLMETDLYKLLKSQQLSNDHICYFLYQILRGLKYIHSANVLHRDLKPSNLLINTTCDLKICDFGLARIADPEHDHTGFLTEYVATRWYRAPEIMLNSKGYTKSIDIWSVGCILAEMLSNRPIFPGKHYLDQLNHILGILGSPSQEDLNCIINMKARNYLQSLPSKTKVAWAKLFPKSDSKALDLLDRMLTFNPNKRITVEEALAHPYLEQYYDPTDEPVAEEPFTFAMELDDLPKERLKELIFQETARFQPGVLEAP
T2 sequence (P28482 whole entry, looked up): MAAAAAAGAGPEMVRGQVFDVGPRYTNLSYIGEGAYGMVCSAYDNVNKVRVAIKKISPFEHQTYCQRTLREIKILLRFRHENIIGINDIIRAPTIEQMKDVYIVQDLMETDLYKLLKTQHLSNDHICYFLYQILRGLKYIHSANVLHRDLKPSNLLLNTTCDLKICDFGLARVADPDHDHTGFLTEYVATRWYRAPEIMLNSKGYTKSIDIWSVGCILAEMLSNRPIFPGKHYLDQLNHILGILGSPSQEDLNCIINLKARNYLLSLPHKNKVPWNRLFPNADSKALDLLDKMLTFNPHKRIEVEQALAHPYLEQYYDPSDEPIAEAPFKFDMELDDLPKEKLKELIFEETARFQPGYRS

MDA-MB-231 [16] = assay: Induction of apoptosis in human MDA-MB-231 cells assessed apoptotic cell death at 10 uM incubated for 24 hrs by Annexin-V/PI analysis; type: functional, cell-based
[17] = biological target: T2, Mitogen-activated protein kinase; ERK1/ERK2 (Homo sapiens); assay: Inhibition of ERK1/2 autophosphorylation in human HCT-116 cells at 0.5 to 5 uM incubated for 24 hrs by Western blot analysis; type: cell-based; details: dose 0.5-5 µM
HCT-116 [18] = assay: Induction of apoptosis in human HCT-116 cells assessed as cleaved caspase-3 at 0.1 to 10 uM incubated for 24 hrs by Western blot analysis; type: functional, cell-based; details: dose 0.1-10 µM
MDA-MB-231 [19] = assay: Antitumor activity against human MDA-MB-231 cells xenografted in Balb/c mouse assessed as decrease in ki67 at 40 to 70 mg/kg, po once daily measured for 16 days by Immunohistochemical analysis; type: functional, organism-based; details: dose 40-70 mg/kg, time 16.0 day
MDA-MB-231 [20] = assay: In vivo antitumor activity against human MDA-MB-231 cells xenografted in Balb/c mouse assessed as reduction in tumor weight at 40 to 70 mg/kg, po once daily measured for 16 days; type: functional, organism-based; details: dose 40-70 mg/kg, time 16.0 day
MDA-MB-231 [21] = assay: Induction of apoptosis in human MDA-MB-231 cells assessed as cleaved PARP at 0.1 to 10 uM incubated for 24 hrs by Western blot analysis; type: functional, cell-based; details: dose 0.1-10 µM
MDA-MB-231 [22] = assay: Antimetastatic activity against human MDA-MB-231 cells expressing firefly luciferase xenografted NSG orthotopic mouse model assessed as reduction in luminescence intensity at chest region at 70 mg/kg, po once daily measured for 2 weeks; type: functional, organism-based
MDA-MB-231 [23] = assay: In vivo antitumor activity against human MDA-MB-231 cells xenografted in Balb/c mouse assessed as tumor volume at 70 mg/kg, po once daily measured for 16 days (reference value: 600 mm^3); type: functional; details: time 16.0 day
MDA-MB-231 [24] = assay: Induction of apoptosis in human MDA-MB-231 cells assessed as cleaved caspase-3 at 0.1 to 10 uM incubated for 24 hrs by Western blot analysis; type: functional, cell-based; details: dose 0.1-10 µM
[25] = Toxicity in Balb/c mouse xenografted with human MDA-MB-231 cells assessed as change in body weight at 40 to 70 mg/kg, po once daily measured for 16 days; type: organism-based; details: in vivo, 384 h, dose 40-70 mg/kg, time 16 day
HCT-116 [26] = assay: Induction of apoptosis in human HCT-116 cells assessed as cleaved PARP at 0.1 to 10 uM incubated for 24 hrs by Western blot analysis; type: functional, cell-based; details: dose 0.1-10 µM
MDA-MB-231 [27] = assay: In vivo antitumor activity against human MDA-MB-231 cells xenografted in Balb/c mouse assessed as tumor volume at 40 mg/kg, po once daily measured for 16 days (reference value: 600 mm^3); type: functional; details: time 16.0 day

Structure (SMILES)	GI50 (BaF3 [1]; Mus musculus, BaF3)	GI50 (BaF3 [2]; Mus musculus, BaF3)	GI50 (BaF3 [3]; Mus musculus, BaF3)	GI50 (BaF3 [4]; Mus musculus, BaF3)	GI50 (BaF3 [5]; Mus musculus, BaF3)	GI50 (BaF3 [6]; Mus musculus, BaF3)	IC50 (Focal adhesion kinase 1)	IC50 [8]	remaining at 1 h, 1 µM [10]	inhibition at 10 µM (CYP3A4)	inhibition at 10 µM (CYP2C19)	inhibition at 10 µM (CYP2C9)	inhibition at 10 µM (CYP1A2)	GI50 ([9]; Homo sapiens, A375P)	GI50 (MDA-MB-231 [11]; Homo sapiens, MDA-MB-231)	inhibition at 10 µM (CYP2D6)	GI50 (HCT-116 [12]; Homo sapiens, HCT-116)	GI50 (A375P)	further results
CNC(=O)c1cc(Oc2ccc(NC(=O)Nc3ccc(Cl)c(C(F)(F)F)c3)cc2)ccn1 [SORAFENIB]	206 nM	2640 nM	56.5 nM	5420 nM	2.8 nM	1540 nM													Activity (MV4-11): Active
CS(=O)(=O)Nc1cccc(-c2csc3cnc(Nc4ccc(N5CCOCC5)cc4)nc23)c1							8 nM	< 0.5 nM	79.5%										IC50 [7]: 260 nM; GI50 (BaF3 [1]): 10.3 nM; GI50 (BaF3 [2]): 365 nM; GI50 (BaF3 [3]): 1.7 nM; GI50 (BaF3 [4]): 510 nM; GI50 (BaF3 [5]): 9.5 nM; GI50 (BaF3 [6]): 104 nM; GI50 [9]: 1570 nM; GI50 (MDA-MB-231 [11]): 400 nM; GI50 (HCT-116 [12]): 410 nM
CCN1CCN(c2ccc(Nc3ncc4scc(-c5ccccc5)c4n3)cc2)CC1	153 nM	192 nM	2.2 nM	174 nM	10.8 nM	67.5 nM	10 nM	< 0.5 nM	92.6%	81%	96.5%	92.1%	30.9%	400 nM	630 nM	84.1%	1140 nM		
CCN1CCN(c2ccc(Nc3ncc4scc(-c5cccc(N6CCCS6(=O)=O)c5)c4n3)cc2)CC1	23.2 nM	568 nM	9.4 nM	371 nM	46.3 nM	223 nM	33 nM	< 0.5 nM	73.4%	59.6%	75.7%	74.1%	67.9%	410 nM	530 nM	91.3%	340 nM		
CCOC(=O)c1ccccc1-c1csc2cnc(Nc3ccc(N4CCN(CC)CC4)cc3)nc12							1650 nM								46200 nM		31200 nM	inactive	
CCN1CCN(c2ccc(Nc3ncc4scc(-c5ccc6ccccc6c5)c4n3)cc2)CC1							126 nM								1380 nM		2060 nM	inactive	
CCN1CCN(c2ccc(Nc3ncc4scc(-c5cccc([N+](=O)[O-])c5)c4n3)cc2)CC1	20.5 nM	234 nM	4 nM	511 nM	23.4 nM	136 nM	21 nM	< 0.5 nM	73.1%	55.1%	82.9%	100%	44.8%	500 nM	260 nM	100%	110 nM		
CS(=O)(=O)Nc1cccc(-c2csc3cnc(NCCO)nc23)c1															57200 nM		55800 nM	inactive	
CN(c1ncccc1CNc1nc(Nc2ccc3c(c2)CC(=O)N3)ncc1C(F)(F)F)S(C)(=O)=O [PF-00562271]										47.2%		42.7%	91.2%	10200 nM	1950 nM	90.5%	1140 nM		growth inhibition (GI) (MDA-MB-231 [13]): Active; Activity (MDA-MB-231 [14]): Active; inhibition [15]: inactive; Activity (MDA-MB-231 [16]): Active; inhibition [17]: inactive; Activity (HCT-116 [18]): Active; Activity (MDA-MB-231 [19]): Active; Activity (MDA-MB-231 [20]): Active; Activity (MDA-MB-231 [21]): Active; Activity (MDA-MB-231 [22]): Active; Activity (MDA-MB-231 [23]): Active; Activity (MDA-MB-231 [24]): Active; Activity [25]: Non-Toxic; Activity (HCT-116 [26]): Active; Activity (MDA-MB-231 [27]): Active
COc1cc(Nc2ncc3scc(-c4cccc(NS(C)(=O)=O)c4)c3n2)cc(OC)c1OC							7 nM	< 0.5 nM	39.7%										IC50 [7]: 260 nM; GI50 (BaF3 [1]): 1.3 nM; GI50 (BaF3 [2]): 325 nM; GI50 (BaF3 [3]): 1.3 nM; GI50 (BaF3 [4]): 586 nM; GI50 (BaF3 [5]): 3.1 nM; GI50 (BaF3 [6]): 25.3 nM; GI50 [9]: 200 nM; GI50 (MDA-MB-231 [11]): 410 nM; GI50 (HCT-116 [12]): 430 nM

From ChEMBL document CHEMBL4837239, “Identification of Thieno[3,2-d]pyrimidine Derivatives as Dual Inhibitors of Focal Adhesion Kinase and FMS-like Tyrosine Kinase 3” (J Med Chem, 2021)
